According to US10647672B2, “Modulators of cell adhesion, methods and compositions therefor” (Zonula Incorporated, priority 2017, dated 2020):

Legend:
[1] = system: cerebellar neurons on 3T3 fibroblasts that express N-cadherin; assay: neurite outgrowth assay; type: cell-based, mouse; details: 10 micromolar; 18 hours culture
Procedure: Within a representative neurite outgrowth assay, neurons are cultured on a monolayer of cells (e.g., 3T3 fibroblasts) that express N-cadherin. […] For example, neurons can be cultured on monolayers of 3T3 cells transfected with cDNA encoding N-cadherin essentially as described by Doherty, P. and Walsh, F. S., Curr. Op. Neurobiol. 4:49-55, 1994; Williams, E. J., et al., Neuron 13:583-594, 1994; Hall, H., et al., Cell Adhesion and Commun. 3:441-450, 1996; Doherty, P. and Walsh, F. S., Mol. Cell. Neurosci. 8:99-111, 1994; and Safell, J. L., et al., Neuron 18:231-242, 1997. Briefly, monolayers of control 3T3 fibroblasts and 3T3 fibroblasts that express N-cadherin are established by overnight culture of 80,000 cells in individual wells of an 8-chamber well tissue culture slide. 3000 cerebellar neurons isolated from post-natal day 3 mouse brains are cultured for 18 hours on the various monolayers in control media (SATO/2% FCS), or media supplemented with various concentrations of the modulating agent. The cultures are then fixed and stained for GAP43 which specifically binds to the neurons and their neurites. The length of the longest neurite on each GAP43 positive neuron is measured by computer assisted morphometry.

[2] = system: classical cadherin-expressing cells; assay: cell adhesion assay, classical cadherin mediated cell adhesion; type: cell-based; details: 1 micromolar; determined visually within 24 hours
Procedure: In these experiments, classical cadherin-expressing cells are plated under standard conditions that, in the absence of cell adhesion antagonist, permit cell adhesion. Disruption of cell adhesion is determined visually within 24 hours, by observing retraction of the cells from one another.

[3] = system: Panc-1 human pancreatic cancer cells; assay: cancer cell adhesion, visual retraction of cells; type: cell-based; details: 24 hours, light microscopy
Procedure: (§1) In these experiments, Panc-1 human pancreatic cancer cells were maintained in Dulbecco's minimum essential medium supplemented with 10% fetal calf serum at 37° C. in 5% CO2 in air. All culture reagents were purchased from Invitrogen (Burlington, ON). Panc-1 cells (ATCC CRL-1469) were plated at 20,000 cells per well of a 4-well tissue culture slide (NalgeNunc, Naperville, Ill.). After 24 hours of culture, cells were treated for 24 hours with medium containing varying concentrations of compounds 15 and 16 dissolved in dimethylsulfoxide (DMSO; final concentration of 1% DMSO in the medium), or 1% DMSO alone in the medium and then fixed with 4% paraformaldehyde dissolved in phosphate buffered saline and stained with hematoxylin. Disruption of cell adhesion was determined visually within 24 hours, by observing retraction of the cells from one another.

[4] = system: Panc-1 human pancreatic cancer cells; assay: cell death, trypan blue exclusion count; type: cell-based; details: 24 hours
Procedure: as §1
In order to determine the effect of the compounds on cell death, the medium was aspirated from the treated and untreated cultures and the non-adherent cells collected by centrifugation (1000 rpm for 5 min). The cells were resuspended in phosphate buffered saline and combined with trypan blue (Sigma). Cells were then put in a hemocytometer and the number of cells that excluded the trypan blue counted using a microscope to determine the number of live cells.

[5] = system: 3D spheroid N-cadherin mouse fibroblast (LN5) cells; assay: hanging drop 3D spheroid cell culture assay; type: cell-based; details: hanging drops incubated 48 h
Procedure: In these experiments, a total of 2×10^6 originally noncohesive embryonic mouse L929 fibroblasts (L cells) were transfected by electroporation in 400 μl transfection medium (RPMI 1640, 1% dextrose, 1 mM β-mercaptoethanol) with 40 μg pMiwcN chicken N-cadherin expression vector (Miyatani, S., et al., Science, 1989, 245, 631-635; Fujimori T., et al., Development, 1990, 110. 97-104). Neomycin resistance (pwlneo, GIBCO) was included for G418 selection. Transfected cells were diluted 1/100 and placed in medium containing 800 μg/ml G418 (GIBCO). Resistant cells were grown to confluence, detached by trypsin/Ca^2+ treatment, and stained with an anti-chicken N-cadherin antibody (NCD2, Zymed) on ice for 45 min. After several washes in Hanks' balanced salt solution, cells were mixed with a fluorescein isothiocyanate-conjugated secondary antibody and placed on ice for 30 min. N-cadherin-expressing cells were then autocloned into 96-well plates by using the CloneCyt Integrated Deposition System (Becton-Dickinson Immunocytometry Systems). Positive clones were reanalyzed by FACS and the L cell line LN5 was propagated for these studies.
The 3D spheroids were generated as follows. Cells were removed from near-confluent plates with TC (0.05% trypsin and 2 mM Ca^2+ in Hank's solution for 5-10 minutes), washed once with 1 mL 4° C. Hank's solution, and suspended at a concentration of 2.5×10^6 cells/ml in complete MEM supplemented with 2 mM CaCl2 and varying concentrations of N-cadherin antagonists (Crocus Laboratories, Montreal, Quebec, Canada). The antagonists were compound 15 (MW=499.43) and compound 16 (MW=499.43). Stock solutions of the antagonists were prepared by dissolving the antagonists in DMSO at concentrations of 30 mM. Controls were made by suspending the cells as described above in the absence of antagonists with only the respective amount of DMSO added. Drops of the cell suspensions (10 microliters each) were deposited on the underside of a 10 cm tissue culture dish lid. The lid was then inverted and placed on dish containing 5 ml of PBS for hydration. Hanging drops were incubated under tissue culture conditions for 48 h, allowing the cells to coalesce at the base of the droplets and to form multi-layer aggregates. The tissue culture dish lid was then removed and the medium was gently aspirated. Aggregates (N=10-20) where then photographed under 4× lens and cell area was analyzed using ImageJ. Statistical differences were determined using ANOVA and Tukey's multiple comparison test.
Each of the antagonists tested from Crocus Laboratories contained cadherin antagonist properties at different potency levels. We determined the approximate minimum concentration needed for an anti-adhesion dose response on 3D spheroid N-cadherin mouse fibroblast (LN5) cells. […]

[6] = system: human cancer-associated fibroblast (CAF010415); assay: cancer-associated fibroblast viability, CELLTITER GLO; type: cell-based; details: in vitro; measured after 24 h and 48 h
Procedure: In this study, CAFs were isolated as described by Orr et al, (On, B., et al., Oncogene, 31, 1130-1142, 2012). The cells were grown in Dulbecco's modified Eagle medium (Multicell) with 10% fetal bovine serum. CAFs are human primary fibroblasts, grown from patient prostate tumor samples. These cells are not an established cell line, nor are they immortalized, and at some point they will senesce.
In these experiments, cells were seeded in a 96-well plate (Corning) (3,000 cells/well). The next day, the drug was added at the indicated concentration (FIG. 8). After 24 h and 48 h cell viability was measured using CELLTITER GLO® (Promega, Madison, Wis.) according to the manufacturer's protocol. All assays were repeated at least 3 times in triplicate each time. The results are depicted in FIG. 8 as SEM. […] The N-cadherin antagonist compound 15 thus decreases the viability of human pancreatic cancer (PC) cells and CAFs. These observations indicate that N-cadherin antagonists can be used to treat PC.

[7] = system: human fibroblast-like synoviocytes (FLS); assay: fibroblast-like synoviocyte cell adhesion; type: cell-based; details: 24 hours treatment
Procedure: In these experiments, human fibroblast-like synoviocytes (FLS) (ScienCell Research Laboratories (Carlsbad, Calif.; Cat #4700) were maintained in complete Synoviocyte media (ScienCell Research Laboratories Carlsbad, Calif. Cat #4701) at 37° C. in 5% CO2 in air. FLS cells were plated at 1.5×10^4 cells per well of a 4-well tissue culture slide (NalgeNunc, Naperville, Ill.). After 24 hours of culture, cells were treated for 24 hours with medium containing varying concentrations of compounds 15 dissolved in dimethylsulfoxide (DMSO; final concentration of 1% DMSO in the medium), or 1% DMSO alone in the medium. The cells were then fixed with 4% paraformaldehyde dissolved in phosphate buffered saline and stained with hematoxylin. Disruption of cell adhesion was determined visually within 24 hours, by observing retraction of the cells from one another.

female mice = assay: ovulation / corpus luteum formation in hormone-stimulated mice; type: in vivo, mouse; details: 50 mg/kg i.p. twice per day
Procedure: In these experiments, two groups of female mice (n=6 per group) were injected i.p. (50 μL per injection) twice per day with either vehicle control (saline containing 7.5% DMSO) or vehicle containing compound 15 (50 mg/kg) at the days indicated in FIG. 10. The mice were injected with hormones to stimulate ovulation. FIG. 10 is a schematic showing the injection of hormones into mice to cause follicle maturation and injection of compound 15.

[8] = system: 5TGM1 mouse MM plasma cells; assay: C57BL/KaLwRij murine model of Multiple Myeloma, tumor burden; type: in vivo; details: 50 mg/kg/day i.p. for 5 days; assessed at days 14, 21 and 28
Procedure: In these experiments, 5TGM1 mouse MM plasma cells (expressing a dual GFP and luciferase reporter construct (Noll Neoplasia 2014; Cheong 2015)) were maintained in Iscove's modified Dulbecco's medium (IMDM) with 20% fetal calf serum (FCS; Thermo Fisher Scientific, Waltham, Mass., USA) and supplements.
C57Bl/KaLwRij mice (aged 6-8 weeks) were used for all in vivo studies. For MM tumor studies, mice were inoculated with 5×10^5 5 TGM1 cells in 100 μl phosphate buffered saline by intravenous injection (i.v.) via the tail vein. Total body tumor burden was assessed at days 14, 21 and 28 using the Xenogen IVIS, as previously described (Mrozik, K. M., et al., 2015, Br. J. Haematol. 171, 387-399.). All animals used for therapy studies were randomized by age, sex and, where appropriate, tumor burden. Compound 15 was dissolved at a concentration of 10 mg/ml in saline containing 40% 2-hydroxyproprol-β-cyclodextrin. Either compound 15 (50 mg/kg/day) (N=8) or vehicle (40% 2-hydroxyproprol-β-cyclodextrin in saline) (N=7) alone was administered to mice i.p. commencing 15 minutes prior to 5TGM1 cell injection for 5 days. […] Compound 15 is therefore effective for treatment of MM.

Myeloma cells MM.1S = assay: multiple myeloma cell viability, high content screening of live cells; type: cell-based; details: 24 h post-treatment
Procedure: Myeloma cells MM.1S (American Type Culture Collection, Manassas, Va., USA) were cultured in RPMI-1640 medium supplemented with 10% fetal bovine serum (Thermo Fisher Scientific, Waltham, Mass., USA), 100 U/mL of penicillin, and […] of streptomycin. The cells were grown at 37° C. in a humidified incubator with 5% CO2.
In these experiments, MM.1S cells were pre-labeled with CellTrace Violate (Thermo Fisher Scientific), plated on 96-well plates (1.5×10^5 cells/well) and treated with varying concentrations of compound 15 (1-100 μM) or DMSO (vehicle control). High content screening (CellInsight CX5, Thermo Fisher Scientific) was utilized to quantify the number of live cells (i.e. calcein AM+ cells) 24 h post-treatment. FIG. 13 presents photomicrographs (upper panel) and quantitative data (lower panel) of cells treated with compound 15.

Row | SMILES | decrease in the mean neurite length relative to the length in the absence of modulating agent [1] | disruption of cell adhesion (retraction of the cells from one another) [2] | disruption of cell adhesion ([3]; 0.1 μM) | disruption of cell adhesion ([3]; 1 μM) | disruption of cell adhesion ([3]; 10 μM) | disruption of cell adhesion ([3]; 100 μM) | cell death in comparison to the control ([4]; 10 μM) | cell death in comparison to the control ([4]; 100 μM) | concentration at which complete disruption occurred [5] [µM] | minimum concentration required to observe cohesion disruption [5] [µM] | cell viability [6] | concentration range in which effects on FLS cells (disruption of cell adhesion) can be seen [7] [µM] | corpus luteum formation (luteinized CL-like structures in ovaries) (female mice) | ovulation (female mice) | total body tumour burden [8] | number of live cells (calcein AM+) on the substratum (Myeloma cells MM.1S; 10 μM) | number of live cells (calcein AM+) on the substratum (Myeloma cells MM.1S; 100 μM) | cell death in comparison to the control ([4]; 1 μM)
1 | COc1ccc(OC[C@@H](O)CNC2CCN(C[C@H](O)COc3ccc(Cl)c(Cl)c3)CC2)cc1 [Compound 15, (S)-1-(3,4-Dichlorophenoxy)-3-(4-((S)-2-hydroxy-3-(4-methoxyphenoxy)propylamino)piperidin-1-yl)propan-2-ol] | at least 50% | disruption of cell adhesion is observed | not disrupted | disrupted cell adhesion | disrupted cell adhesion | disrupted cell adhesion | caused cell death | caused cell death | 75 | 40 | decreases human cancer-associated fibroblast (CAF010415) viability | 5 to 50 | fewer clearly luteinized CL-like structures | inhibits ovulation | caused a decrease in tumour burden | caused a decrease in the number of live cells | caused a decrease in the number of live cells | –
2 | COc1ccc(OC[C@@H](O)CNC2CCN(C[C@@H](O)COc3ccc(Cl)c(Cl)c3)CC2)cc1 [Compound 16, (R)-1-(3,4-Dichlorophenoxy)-3-(4-((S)-2-hydroxy-3-(4-methoxyphenoxy)propylamino)piperidin-1-yl)propan-2-ol] | – | – | disrupted cell adhesion | disrupted cell adhesion | disrupted cell adhesion | disrupted cell adhesion | caused cell death | caused cell death | 75 | 50 | – | – | – | – | – | – | – | caused cell death
